Reference: PubChem BioAssay (NCI)
“And” between values parts separate entries of the source, which are not always exact repeats. Equal entries are not always repeated.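 Briefly, cells in 96-well plates were exposed to five compound concentrations for 48 h, and endpoints were estimated by linear interpolation. GI50 = concentration required for 50% inhibition of growth. TGI marks complete inhibition of growth.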

Assays:
Assay in all cases: NCI tumour cell line growth inhibition, 48 h
A498 renal = system: A498 renal
A549 NSCLC = system: A549 NSCLC
CCRF-CEM leukemia = system: CCRF-CEM leukemia
COLO 205 colon = system: COLO 205 colon
DLD-1 colon = system: DLD-1 colon
DMS 273 small cell lung = system: DMS 273 small cell lung
EKVX NSCLC = system: EKVX NSCLC
HCC-2998 colon = system: HCC-2998 colon
HCT-116 colon = system: HCT-116 colon
HCT-15 colon = system: HCT-15 colon
HL-60(TB) leukemia = system: HL-60(TB) leukemia
HOP-18 NSCLC = system: HOP-18 NSCLC
HOP-62 NSCLC = system: HOP-62 NSCLC
HOP-92 NSCLC = system: HOP-92 NSCLC
HT29 colon = system: HT29 colon
IGROV1 ovarian = system: IGROV1 ovarian
K-562 leukemia = system: K-562 leukemia
KM12 colon = system: KM12 colon
KM20L2 colon = system: KM20L2 colon
LOX IMVI melanoma = system: LOX IMVI melanoma
M19-MEL melanoma = system: M19-MEL melanoma
MALME-3M melanoma = system: MALME-3M melanoma
MCF7 breast = system: MCF7 breast
MOLT-4 leukemia = system: MOLT-4 leukemia
NCI-H226 lung = system: NCI-H226 lung
NCI-H23 lung = system: NCI-H23 lung
NCI-H460 lung = system: NCI-H460 lung
NCI-H522 lung = system: NCI-H522 lung
NCI/ADR-RES ovarian = system: NCI/ADR-RES ovarian
OVCAR-3 ovarian = system: OVCAR-3 ovarian
OVCAR-4 ovarian = system: OVCAR-4 ovarian
OVCAR-5 ovarian = system: OVCAR-5 ovarian
OVCAR-8 ovarian = system: OVCAR-8 ovarian
P388 leukemia = system: P388 leukemia
P388/ADR leukemia = system: P388/ADR leukemia
RPMI-8226 leukemia = system: RPMI-8226 leukemia
RXF 393 renal = system: RXF 393 renal
SF-268 CNS = system: SF-268 CNS
SF-295 CNS = system: SF-295 CNS
SF-539 CNS = system: SF-539 CNS
SK-MEL-2 melanoma = system: SK-MEL-2 melanoma
SK-MEL-28 melanoma = system: SK-MEL-28 melanoma
SK-MEL-5 melanoma = system: SK-MEL-5 melanoma
SK-OV-3 ovarian = system: SK-OV-3 ovarian
SN12C renal = system: SN12C renal
SN12K1 renal = system: SN12K1 renal
SNB-75 CNS = system: SNB-75 CNS
SNB-78 CNS = system: SNB-78 CNS
SW-620 colon = system: SW-620 colon
U251 CNS = system: U251 CNS
UACC-257 melanoma = system: UACC-257 melanoma
UACC-62 melanoma = system: UACC-62 melanoma
UO-31 renal = system: UO-31 renal
XF 498 CNS = system: XF 498 CNS
786-0 renal = system: 786-0 renal
ACHN renal = system: ACHN renal
BT-549 breast = system: BT-549 breast
CAKI-1 renal = system: CAKI-1 renal
DMS 114 small cell lung = system: DMS 114 small cell lung
DU-145 prostate = system: DU-145 prostate
HS 578T breast = system: HS 578T breast
LXFL 529 NSCLC = system: LXFL 529 NSCLC
M14 melanoma = system: M14 melanoma
MDA-MB-231 breast = system: MDA-MB-231 breast
MDA-MB-435 = system: MDA-MB-435
MDA-N = system: MDA-N
PC-3 prostate = system: PC-3 prostate
RXF-631 renal = system: RXF-631 renal
SNB-19 CNS = system: SNB-19 CNS
SR leukemia = system: SR leukemia
T-47D breast = system: T-47D breast
TK-10 renal = system: TK-10 renal

O=Cc1c(Br)[nH]c2ccccc12
TGI (A498 renal): > 100 µM
TGI (A549 NSCLC): > 100 µM
TGI (CCRF-CEM leukemia): > 100 µM
TGI (COLO 205 colon): > 100 µM
TGI (DLD-1 colon): > 100 µM
TGI (DMS 273 small cell lung): > 100 µM
TGI (EKVX NSCLC): > 100 µM
TGI (HCC-2998 colon): > 100 µM
TGI (HCT-116 colon): > 100 µM
TGI (HCT-15 colon): > 100 µM
TGI (HL-60(TB) leukemia): > 100 µM
TGI (HOP-18 NSCLC): > 100 µM
TGI (HOP-62 NSCLC): > 100 µM
TGI (HOP-92 NSCLC): > 100 µM
TGI (HT29 colon): > 100 µM
TGI (IGROV1 ovarian): > 100 µM
TGI (K-562 leukemia): > 100 µM
TGI (KM12 colon): > 100 µM
TGI (KM20L2 colon): > 100 µM
TGI (LOX IMVI melanoma): > 100 µM
TGI (M19-MEL melanoma): > 100 µM
TGI (MALME-3M melanoma): > 100 µM
TGI (MCF7 breast): > 100 µM
TGI (MOLT-4 leukemia): > 72.6 µM
TGI (NCI-H226 lung): > 100 µM
TGI (NCI-H23 lung): > 100 µM
TGI (NCI-H460 lung): > 100 µM
TGI (NCI-H522 lung): > 100 µM
TGI (NCI/ADR-RES ovarian): > 100 µM
TGI (OVCAR-3 ovarian): > 100 µM
TGI (OVCAR-4 ovarian): > 100 µM
TGI (OVCAR-5 ovarian): > 100 µM
TGI (OVCAR-8 ovarian): > 100 µM
TGI (P388 leukemia): > 100 µM
TGI (P388/ADR leukemia): > 100 µM
TGI (RPMI-8226 leukemia): > 100 µM
TGI (RXF 393 renal): > 100 µM
TGI (SF-268 CNS): > 100 µM
TGI (SF-295 CNS): > 100 µM
TGI (SF-539 CNS): > 100 µM
TGI (SK-MEL-2 melanoma): > 100 µM
TGI (SK-MEL-28 melanoma): > 100 µM
TGI (SK-MEL-5 melanoma): > 100 µM
TGI (SK-OV-3 ovarian): > 100 µM
TGI (SN12C renal): > 100 µM
TGI (SN12K1 renal): > 100 µM
TGI (SNB-75 CNS): > 100 µM
TGI (SNB-78 CNS): > 100 µM
TGI (SW-620 colon): > 100 µM
TGI (U251 CNS): > 100 µM
TGI (UACC-257 melanoma): 77.7 µM
TGI (UACC-62 melanoma): > 100 µM
TGI (UO-31 renal): > 100 µM
TGI (XF 498 CNS): > 100 µM

O=C1C(Br)=C(Br)C(=O)c2ccccc21
TGI (786-0 renal): 32.3 µM and 23.5 µM
GI50 (A498 renal): 48.5 µM and 13.4 µM
TGI (A498 renal): > 100 µM and 27.1 µM
TGI (A549 NSCLC): 55.8 µM
GI50 (ACHN renal): 15.2 µM and 5.76 µM
TGI (ACHN renal): 28.4 µM and 14.2 µM
TGI (BT-549 breast): 15.3 µM
TGI (CAKI-1 renal): 13.7 µM
GI50 (CCRF-CEM leukemia): 9.85 µM and 2.25 µM
TGI (DLD-1 colon): 35.2 µM and 67.5 µM
GI50 (DMS 114 small cell lung): 17.6 µM and 1.91 µM
TGI (DMS 114 small cell lung): 34.9 µM and 6.91 µM
GI50 (DMS 273 small cell lung): 49.9 µM and 9.23 µM
TGI (DMS 273 small cell lung): > 100 µM and 23.5 µM
TGI (DU-145 prostate): 33 µM
GI50 (EKVX NSCLC): 100 µM and 20 µM
TGI (EKVX NSCLC): > 100 µM and 39.9 µM
TGI (HCC-2998 colon): 46.3 µM and 34.5 µM
TGI (HCT-116 colon): 31.8 µM and 28.1 µM
TGI (HCT-15 colon): 31.4 µM and 45.1 µM
TGI (HL-60(TB) leukemia): 15.6 µM
TGI (HOP-18 NSCLC): 35.5 µM
TGI (HOP-62 NSCLC): 37.6 µM and 44.4 µM
GI50 (HOP-92 NSCLC): 13.4 µM and 1.73 µM
TGI (HOP-92 NSCLC): 27 µM and 4.59 µM
TGI (HS 578T breast): > 60.7 µM
TGI (HT29 colon): > 100 µM and 21.8 µM
GI50 (IGROV1 ovarian): 16.9 µM and 6.06 µM
TGI (IGROV1 ovarian): 45.5 µM and 17.4 µM
TGI (K-562 leukemia): > 100 µM
TGI (KM12 colon): 36.9 µM and 33.3 µM
TGI (KM20L2 colon): > 100 µM and 32.1 µM
GI50 (LOX IMVI melanoma): 16.5 µM and 4.69 µM
TGI (LOX IMVI melanoma): 31.4 µM and 12.3 µM
GI50 (LXFL 529 NSCLC): 19.2 µM and 5.82 µM
TGI (LXFL 529 NSCLC): 34 µM and 11.7 µM
TGI (M14 melanoma): 28.4 µM and 22.6 µM
GI50 (M19-MEL melanoma): 16.1 µM and 6.98 µM
TGI (M19-MEL melanoma): 29.8 µM and 21.7 µM
GI50 (MALME-3M melanoma): 16.8 µM and 6.59 µM
TGI (MALME-3M melanoma): 31 µM and 16 µM
TGI (MCF7 breast): > 100 µM
TGI (MDA-MB-231 breast): 11.6 µM
TGI (MDA-MB-435): 21.8 µM
TGI (MDA-N): 11.4 µM
GI50 (MOLT-4 leukemia): 7.01 µM and 1.34 µM
GI50 (NCI-H226 lung): 15.5 µM and 4.52 µM
TGI (NCI-H226 lung): 31.9 µM and 12.2 µM
GI50 (NCI-H23 lung): 17.2 µM and 6.6 µM
TGI (NCI-H23 lung): 33.5 µM and 17.6 µM
GI50 (NCI-H460 lung): 32.7 µM and 10.6 µM
TGI (NCI-H460 lung): > 100 µM and 33.9 µM
GI50 (NCI-H522 lung): 16.3 µM and 3.77 µM
TGI (NCI-H522 lung): 29.9 µM and 15.5 µM
TGI (NCI/ADR-RES ovarian): 66.8 µM
GI50 (OVCAR-3 ovarian): 17.9 µM and 8.34 µM
TGI (OVCAR-3 ovarian): 32.4 µM and 27.7 µM
TGI (OVCAR-4 ovarian): 31.4 µM and 33.3 µM
TGI (OVCAR-5 ovarian): 41.7 µM and 22.9 µM
GI50 (OVCAR-8 ovarian): 17 µM and 7.06 µM
TGI (OVCAR-8 ovarian): 30.9 µM and 57 µM
TGI (PC-3 prostate): 31.7 µM
TGI (RPMI-8226 leukemia): 10.4 µM
GI50 (RXF 393 renal): 16.2 µM and 5.85 µM
TGI (RXF 393 renal): 29.9 µM and 15.6 µM
TGI (RXF-631 renal): 20.1 µM
GI50 (SF-268 CNS): 23.3 µM and 3.27 µM
TGI (SF-268 CNS): 57.7 µM and 12.9 µM
GI50 (SF-295 CNS): 91.1 µM and 14.6 µM
TGI (SF-295 CNS): > 100 µM and 28.6 µM
GI50 (SF-539 CNS): 19.4 µM and 2.82 µM
TGI (SF-539 CNS): 36 µM and 10.6 µM
TGI (SK-MEL-2 melanoma): 36.2 µM and 29 µM
GI50 (SK-MEL-28 melanoma): 18.4 µM and 4.98 µM
TGI (SK-MEL-28 melanoma): 32.8 µM and 15.6 µM
TGI (SK-MEL-5 melanoma): 23.3 µM
GI50 (SK-OV-3 ovarian): 16.1 µM and 5.4 µM
TGI (SK-OV-3 ovarian): 31.1 µM and 13.2 µM
GI50 (SN12C renal): 16.4 µM and 5.09 µM
TGI (SN12C renal): 30.2 µM and 17.1 µM
GI50 (SNB-19 CNS): 18.8 µM and 9.17 µM
TGI (SNB-19 CNS): 37.9 µM and 17.4 µM
GI50 (SNB-75 CNS): 27.2 µM and 3.27 µM
TGI (SNB-75 CNS): 79 µM and 11.1 µM
GI50 (SNB-78 CNS): 26.5 µM and 7.52 µM
TGI (SNB-78 CNS): 48.9 µM and 18.4 µM
TGI (SR leukemia): 9.54 µM
GI50 (SW-620 colon): 16 µM and 2.28 µM
TGI (SW-620 colon): 29.5 µM and 8.64 µM
TGI (T-47D breast): 12.5 µM
TGI (TK-10 renal): 32.4 µM and 26.6 µM
GI50 (U251 CNS): 17.5 µM and 2.16 µM
TGI (U251 CNS): 31.3 µM and 4.68 µM
GI50 (UACC-257 melanoma): 18.2 µM and 8.21 µM
TGI (UACC-257 melanoma): 32.6 µM and 16.7 µM
TGI (UACC-62 melanoma): 31.6 µM and 22.7 µM
GI50 (UO-31 renal): 13.6 µM and 5.55 µM
TGI (UO-31 renal): 26.7 µM and 14.7 µM
GI50 (XF 498 CNS): 15.1 µM and 2.98 µM
TGI (XF 498 CNS): 29.7 µM and 9.41 µM
